# Patent publication US11311522B1 (Cavion, Inc., priority 2018, dated 2022)
# Experiments:
# [1] = tested on: T1, Cav3; test: Cav3 potency and state dependency, summary of Cav3 antagonist pharmacological properties; type: cell-based
# T1 construct: rows headed: Cav3 potency
# [2] = PN001/Part II: safety and tolerability; type: in vivo, human
# Experimental: No serious adverse events were reported in the subjects who received CX-8998. One placebo-treated subject experienced a serious adverse event (peritonsillar abscess). The subject was admitted to the hospital for treatment with oral and intravenous antibiotics and was discontinued from the study because of this event. […] Each treatment period was separated from the previous one by an approximate 2-week washout, and all treatments were administered in the morning after an overnight fast. Electroencephalograms were recorded before and at selected time points for up to 24 hours after dosing in each treatment period. Cognitive and subjective assessments, including the Karolinska Sleepiness Scale and Bond-Lader visual analog scale, were also performed. 5.3.1.2.2 Pharmacodynamic Data Alpha rhythm is seen posterior brain regions in healthy adults during quiet wakefulness. It originates in the thalamus and is driven by Cav3 channel activity (Schreckenberger, 2004). Agitated, awake individuals may not display an alpha rhythm. […] Reductions in alpha power during the eyes closed position, were generally observed throughout the 24-hour postdose evaluation period for the 18 mg dose and were generally consistent across electrode sites.
# [3] = tested on: patients with essential tremor; test: T-CALM substudy: iMotor digital spirography; type: in vivo, human; conditions: dominant hand
# Excerpt: The application requires the patient to complete a cycle of evaluations measuring motor function.
# For the Archimedes spiral item of iMotor, subjects are asked to draw a spiral using a digital stylus on a tablet-based application. Prompts instruct the subject to trace a dotted grey mid-line that begins at the start of the spiral without lifting the stylus off the screen. The test is not timed. Subjects are asked to complete the task twice—one with the right and one with the left hand.
# Functional tremor frequency (in Hz) is calculated by the iMotor algorithm based on the number and timing of stylus crosses of the mid-line. The mean change from baseline to Day 15 and Day 28 was calculated for the dominant hand. Statistical significance was calculated by Mann-Whitney non-parametric t-test (two tailed) (FIG. 5 and Table 5).
# [4] = tested on: patients with essential tremor; test: T-CALM: TETRAS-PS spiral task (item 6); type: in vivo, human
# Experimental: The Archimedes spiral item of the TETRAS-PS subscale (Item 6) incorporates a routine clinical assessment of functional tremor impact into the TETRAS scoring of tremor severity. […] The investigator then asks the subject to copy the spiral. Each hand is tested and scored separately. […] The tremor in the spiral is scored, not the movement of the limb.
# Scores for TETRAS-PS subscale item 6 were summed for both hands and the mean change from baseline was calculated for Day 15 and Day 28 (FIG. 4 and Table 4). Statistical significance was calculated by Mann-Whitney non-parametric t-test (two tailed).
# [5] = target: T2, Cav3.2 (Homo sapiens, UniProt O95180); test: Cav3.2 electrophysiology; type: cell-based; conditions: Vh=−80 mV
# T2 construct: expressed in transfected cells
# T2 sequence (O95180 whole entry): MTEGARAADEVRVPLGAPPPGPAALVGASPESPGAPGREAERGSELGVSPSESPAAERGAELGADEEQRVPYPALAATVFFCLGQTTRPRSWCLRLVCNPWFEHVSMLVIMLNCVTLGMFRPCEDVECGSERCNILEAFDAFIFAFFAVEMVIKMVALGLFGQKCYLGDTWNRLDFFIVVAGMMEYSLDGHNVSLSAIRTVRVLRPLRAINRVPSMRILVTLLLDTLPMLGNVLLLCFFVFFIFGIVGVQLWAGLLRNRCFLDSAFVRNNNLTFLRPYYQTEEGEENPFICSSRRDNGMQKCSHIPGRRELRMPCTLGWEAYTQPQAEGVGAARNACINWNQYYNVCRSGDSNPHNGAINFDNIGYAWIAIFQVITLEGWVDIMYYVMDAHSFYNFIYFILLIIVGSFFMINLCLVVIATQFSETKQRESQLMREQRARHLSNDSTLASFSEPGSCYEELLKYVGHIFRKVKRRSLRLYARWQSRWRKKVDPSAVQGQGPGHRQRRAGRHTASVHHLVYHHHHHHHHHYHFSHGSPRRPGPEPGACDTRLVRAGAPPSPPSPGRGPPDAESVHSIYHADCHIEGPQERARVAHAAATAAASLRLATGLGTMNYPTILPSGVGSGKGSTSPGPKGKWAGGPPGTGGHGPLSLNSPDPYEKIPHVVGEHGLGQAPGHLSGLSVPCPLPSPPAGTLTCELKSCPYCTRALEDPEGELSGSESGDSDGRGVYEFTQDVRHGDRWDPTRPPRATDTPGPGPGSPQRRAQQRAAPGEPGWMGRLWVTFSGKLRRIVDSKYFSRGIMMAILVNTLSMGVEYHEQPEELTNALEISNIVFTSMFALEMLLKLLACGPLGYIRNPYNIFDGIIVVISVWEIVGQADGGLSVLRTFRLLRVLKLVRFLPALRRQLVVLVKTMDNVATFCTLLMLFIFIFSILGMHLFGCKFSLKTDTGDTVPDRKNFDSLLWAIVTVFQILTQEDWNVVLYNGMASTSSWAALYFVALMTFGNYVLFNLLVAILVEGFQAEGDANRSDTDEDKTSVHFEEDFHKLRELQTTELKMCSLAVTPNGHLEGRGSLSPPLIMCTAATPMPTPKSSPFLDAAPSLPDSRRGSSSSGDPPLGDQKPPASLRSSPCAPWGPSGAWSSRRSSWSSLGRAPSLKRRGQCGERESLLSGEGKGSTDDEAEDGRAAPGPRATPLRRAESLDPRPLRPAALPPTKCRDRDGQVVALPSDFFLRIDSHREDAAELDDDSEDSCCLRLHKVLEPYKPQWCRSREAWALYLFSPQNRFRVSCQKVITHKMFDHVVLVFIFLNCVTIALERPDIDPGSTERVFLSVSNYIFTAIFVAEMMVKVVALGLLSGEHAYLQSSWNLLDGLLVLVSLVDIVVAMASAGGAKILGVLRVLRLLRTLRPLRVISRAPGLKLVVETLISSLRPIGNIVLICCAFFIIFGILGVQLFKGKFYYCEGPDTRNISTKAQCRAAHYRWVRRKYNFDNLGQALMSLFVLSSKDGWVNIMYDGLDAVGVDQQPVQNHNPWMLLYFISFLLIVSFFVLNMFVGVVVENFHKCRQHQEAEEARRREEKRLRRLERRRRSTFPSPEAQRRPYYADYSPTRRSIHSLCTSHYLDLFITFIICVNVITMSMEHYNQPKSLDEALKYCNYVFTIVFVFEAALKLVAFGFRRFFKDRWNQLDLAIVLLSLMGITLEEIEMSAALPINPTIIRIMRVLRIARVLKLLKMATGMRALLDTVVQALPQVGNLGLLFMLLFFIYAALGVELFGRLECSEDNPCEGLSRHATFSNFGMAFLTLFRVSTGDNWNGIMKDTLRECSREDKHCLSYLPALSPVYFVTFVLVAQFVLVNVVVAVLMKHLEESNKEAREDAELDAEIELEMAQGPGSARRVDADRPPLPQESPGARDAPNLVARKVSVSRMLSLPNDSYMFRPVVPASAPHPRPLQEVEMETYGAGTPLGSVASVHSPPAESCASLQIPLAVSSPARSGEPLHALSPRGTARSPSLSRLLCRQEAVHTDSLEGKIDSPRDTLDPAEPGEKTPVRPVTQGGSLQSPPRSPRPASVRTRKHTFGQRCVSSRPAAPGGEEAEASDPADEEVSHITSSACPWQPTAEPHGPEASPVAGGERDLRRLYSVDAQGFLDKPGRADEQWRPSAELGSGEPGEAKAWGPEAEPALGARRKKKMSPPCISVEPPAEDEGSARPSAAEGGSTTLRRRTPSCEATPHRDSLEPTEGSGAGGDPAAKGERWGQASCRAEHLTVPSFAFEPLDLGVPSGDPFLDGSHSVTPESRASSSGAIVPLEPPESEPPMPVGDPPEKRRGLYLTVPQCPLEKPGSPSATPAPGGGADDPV
structure (smiles),measurement,setting,value
CC(C)c1ccc(CC(=O)N[C@H](C)c2ccc(OCC(F)(F)F)cn2)cc1 [CX-8998],IC50,[1],70 to 100 nM
same,At least 1 adverse event,[2]; 5 mg,8 (66.7) n (%)
same,Dizziness,[2]; 5 mg,1 (8.3) n (%)
same,Drowsiness,[2]; 5 mg,3 (25.0) n (%)
same,Euphoric mood,[2]; 5 mg,1 (8.3) n (%)
same,Feeling of relaxation,[2]; 5 mg,1 (8.3%) n (%)
same,Floating feeling,[2]; 5 mg,1 (8.) n (%)
same,Gastrointestinal Disorders,[2]; 5 mg,2 (16.7) n (%)
same,Headache,[2]; 5 mg,1 (8.3) n (%)
same,Intermittent headache,[2]; 5 mg,0 n (%)
same,Nausea,[2]; 5 mg,2 (16.7) n (%)
same,Nervous System Disorders,[2]; 5 mg,4 (33.3) n (%)
same,Psychiatric Disorders,[2]; 5 mg,4 (33.3) n (%)
same,Sleep disturbance,[2]; 5 mg,1 (8.3) n (%)
same,Vivid dreams,[2]; 5 mg,2 (16.7) n (%)
same,At least 1 adverse event,[2]; 18 mg,11 (91.7) n (%)
same,Dizziness,[2]; 18 mg,3 (25.0) n (%)
same,Drowsiness,[2]; 18 mg,3 (25.0) n (%)
same,Euphoric mood,[2]; 18 mg,3 (25.0) n (%)
same,Feeling of relaxation,[2]; 18 mg,3 (25.0) n (%)
same,Floating feeling,[2]; 18 mg,1 (8.3) n (%)
same,Gastrointestinal Disorders,[2]; 18 mg,1 (8.3) n (%)
same,Headache,[2]; 18 mg,3 (25.0) n (%)
same,Intermittent headache,[2]; 18 mg,2 (16.7) n (%)
same,Nausea,[2]; 18 mg,1 (8.3) n (%)
same,Nervous System Disorders,[2]; 18 mg,8 (66.7) n (%)
same,Psychiatric Disorders,[2]; 18 mg,6 (50.0) n (%)
same,Sleep disturbance,[2]; 18 mg,2 (16.7) n (%)
same,Vivid dreams,[2]; 18 mg,2 (16.7) n (%)
same,Tolerability,[2]; single doses of 5 and 18 mg,generally well tolerated
same,"Change from baseline in functional tremor frequency by iMotor, mean",[3]; Day 15 (8 mg BID),−2.66 Hz
same,"Change from baseline in functional tremor frequency by iMotor, mean",[3]; Day 28 (10 mg BID),−2.41 Hz
same,"Change from baseline in TETRAS-PS spiral item, mean",[4]; Day 15 (8 mg BID),−0.41
same,"Change from baseline in TETRAS-PS spiral item, mean",[4]; Day 28 (10 mg BID),−0.658
same,IC50,[5],96 nM
